IC50 and viability data for 1 compound are collected here from ChEMBL document CHEMBL3769369, “Ligand-based modeling of diverse aryalkylamines yields new potent P-glycoprotein inhibitors” (Eur J Med Chem, 2016).

Data set [1] in a line: Inhibition of P-gp in human MCF7/D70 cells assessed as decrease in doxorubicin IC50 at 10 uM after 72 hrs by MTT assay (Rvb doxorubicin alone IC50 = 0.906 +/- 0.02 uM). The class given is cell-based. The note with it: MCF7/D70, 72 h. On the technique in general: Tetrazolium dyes change colour on reduction, which living cells bring about.
Data set [2] concerns MCF7. In words: Cytotoxicity against human MCF7 cells assessed as viable cells at 10 uM by trypan blue staining based assay. The settings on record: read-out: Activity. It counts as functional.
Data set [3] is described as follows: Inhibition of P-gp in human MCF7/D70 cells assessed as decrease in doxorubicin IC50 at 50 uM after 72 hrs by MTT assay (Rvb doxorubicin alone IC50 = 0.906 +/- 0.02 uM). The settings on record: MCF7/D70, 72 h. It counts as cell-based.
Data set [4] in a line: Cytotoxicity against human fibroblast cells assessed as viable cells at 50 uM by trypan blue staining based assay. It counts as cell-based. The note with it: read-out: Activity.
Data set [5] is described as follows: Inhibition of P-gp in human MCF7/D70 cells assessed as decrease in doxorubicin IC50 at 1 uM after 72 hrs by MTT assay (Rvb doxorubicin alone IC50 = 0.906 +/- 0.02 uM). The class given is cell-based. The note with it: MCF7/D70, 72 h.
A short description of data set [6]: Cytotoxicity against human fibroblast cells assessed as viable cells at 10 uM by trypan blue staining based assay. The class given is cell-based. The note with it: read-out: Activity.
The test system of data set [7] is MCF7. The experiment in a line: Cytotoxicity against human MCF7 cells assessed as viable cells at 50 uM by trypan blue staining based assay. The class given is functional. The note with it: read-out: Activity.

As for `Fc1ccc(N/C2=N/CC/N=C(/Nc3ccc(F)cc3)SS2)cc1`, the 50% inhibitory concentration (IC50) (in general, the concentration needed to halve the response being measured) worked out at 320 nM in data set [1], 190 nM in data set [3] and 320 nM in data set [5]. Moreover, the viability at 10 µM with MCF7 [2] stood at 92%; in data set [6], 100%. For the same compound, the viability at 50 µM amounted to 57% in data set [4] and 58% in the data set with MCF7 [7].
